{"source": "patent US7994166B2", "about": "“Pyrrolidinone benzenesulfonamide derivatives as modulators of ion channels for the treatment of pain” (Vertex Pharmaceuticals Incorporated, priority 2007, dated 2011)", "origin": "cited, not measured here", "molecular_target": "NaV1.8 (Homo sapiens, UniProt Q9Y5Y9)", "sequence (Q9Y5Y9 whole entry, looked up)": "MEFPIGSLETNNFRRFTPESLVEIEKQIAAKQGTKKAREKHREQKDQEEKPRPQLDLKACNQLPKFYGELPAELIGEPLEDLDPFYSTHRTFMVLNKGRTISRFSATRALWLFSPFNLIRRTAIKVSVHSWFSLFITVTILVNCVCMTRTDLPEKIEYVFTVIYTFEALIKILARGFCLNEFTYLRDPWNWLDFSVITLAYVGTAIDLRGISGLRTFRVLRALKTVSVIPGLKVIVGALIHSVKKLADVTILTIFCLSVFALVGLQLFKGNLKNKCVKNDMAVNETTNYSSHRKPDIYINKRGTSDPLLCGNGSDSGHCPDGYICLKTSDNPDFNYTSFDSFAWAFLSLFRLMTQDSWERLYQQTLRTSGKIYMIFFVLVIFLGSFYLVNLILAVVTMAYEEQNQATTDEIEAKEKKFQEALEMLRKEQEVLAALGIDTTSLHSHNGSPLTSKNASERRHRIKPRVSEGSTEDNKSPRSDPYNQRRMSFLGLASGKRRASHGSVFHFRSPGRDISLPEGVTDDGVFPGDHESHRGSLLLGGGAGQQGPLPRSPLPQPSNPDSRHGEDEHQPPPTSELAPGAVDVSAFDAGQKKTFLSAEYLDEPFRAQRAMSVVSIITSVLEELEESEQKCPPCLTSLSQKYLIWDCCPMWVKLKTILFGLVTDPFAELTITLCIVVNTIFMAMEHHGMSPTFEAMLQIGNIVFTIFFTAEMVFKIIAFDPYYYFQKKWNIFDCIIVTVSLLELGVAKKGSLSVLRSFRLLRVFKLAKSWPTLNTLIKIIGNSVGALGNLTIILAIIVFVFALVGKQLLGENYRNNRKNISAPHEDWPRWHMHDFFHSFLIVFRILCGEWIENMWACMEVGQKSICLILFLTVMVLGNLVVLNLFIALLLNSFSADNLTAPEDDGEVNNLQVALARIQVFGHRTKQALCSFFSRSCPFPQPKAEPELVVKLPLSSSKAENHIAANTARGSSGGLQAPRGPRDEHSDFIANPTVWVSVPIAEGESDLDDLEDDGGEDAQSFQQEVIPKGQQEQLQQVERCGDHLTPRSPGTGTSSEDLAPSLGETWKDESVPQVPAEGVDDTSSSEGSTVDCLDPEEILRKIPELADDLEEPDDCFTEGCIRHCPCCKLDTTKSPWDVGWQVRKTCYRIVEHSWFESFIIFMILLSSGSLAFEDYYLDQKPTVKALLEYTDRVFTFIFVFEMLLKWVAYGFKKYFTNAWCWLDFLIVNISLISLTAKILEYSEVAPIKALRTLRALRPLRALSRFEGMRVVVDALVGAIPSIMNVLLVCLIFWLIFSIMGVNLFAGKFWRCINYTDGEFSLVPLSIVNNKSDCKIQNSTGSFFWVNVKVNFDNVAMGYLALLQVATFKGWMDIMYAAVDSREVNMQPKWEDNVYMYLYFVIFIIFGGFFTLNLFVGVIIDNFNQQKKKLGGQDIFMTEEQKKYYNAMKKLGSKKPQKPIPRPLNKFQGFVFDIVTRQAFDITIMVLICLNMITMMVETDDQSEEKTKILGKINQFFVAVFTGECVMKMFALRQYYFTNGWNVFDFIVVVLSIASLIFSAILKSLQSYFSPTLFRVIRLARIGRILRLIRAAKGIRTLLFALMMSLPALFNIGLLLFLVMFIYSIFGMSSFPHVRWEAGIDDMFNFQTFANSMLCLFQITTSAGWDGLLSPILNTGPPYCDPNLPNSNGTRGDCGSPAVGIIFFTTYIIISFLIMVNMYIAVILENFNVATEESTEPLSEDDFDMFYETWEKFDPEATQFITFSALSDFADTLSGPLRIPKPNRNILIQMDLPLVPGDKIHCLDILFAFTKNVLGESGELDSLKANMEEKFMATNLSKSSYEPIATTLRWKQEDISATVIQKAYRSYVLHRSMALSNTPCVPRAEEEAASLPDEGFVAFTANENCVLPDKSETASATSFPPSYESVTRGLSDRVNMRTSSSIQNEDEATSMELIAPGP", "conditions": "read-out: TTX IC50", "data": [{"smiles": "NC1=N[C@H](O)[C@H]2[C@H]3O[C@]4(O)O[C@@H]([C@@H](O)[C@@]2(N1)[C@@H]4O)[C@]3(O)CO", "note": "[TTX, tetrodotoxin]", "values": [{"measurement": "IC50", "value": "> 50", "unit": "µM"}]}]}
